# Columns and labels:
# Type in all cases: protein assay
# [1] = biological target: T1, S-adenosylmethionine synthetase (MAT 1 and MAT 2) (Rattus norvegicus, UniProt P13444+P18298); assay: Inhibition constants of M-2 Forms of rat methionine adenosyltransferase using ATP as the variable substrate; Inhibition is competitive type
# [2] = biological target: T1, S-adenosylmethionine synthetase (MAT 1 and MAT 2); assay: Inhibition constants of MT Forms of rat Novikoff Ascitic Hepatomae using ATP as the variable substrate; Inhibition is competitive type
# [3] = biological target: T1, S-adenosylmethionine synthetase (MAT 1 and MAT 2); assay: Inhibition constants of M-2 Forms of rat methionine adenosyltransferase using Methionine as the variable substrate; Inhibition is competitive type
# [4] = biological target: T1, S-adenosylmethionine synthetase (MAT 1 and MAT 2); assay: Inhibition constants of MT Forms of rat Novikoff Ascitic Hepatomae using Methionine as the variable substrate; Inhibition is non competitive inhibition
# [5] = biological target: T1, S-adenosylmethionine synthetase (MAT 1 and MAT 2); assay: Inhibition constants of MT Forms of rat Novikoff Ascitic Hepatomae using Methionine as the variable substrate; Inhibition is non competitive type
# [6] = biological target: T1, S-adenosylmethionine synthetase (MAT 1 and MAT 2); assay: Inhibition constants of M-2 Forms of rat methionine adenosyltransferase using Methionine as the variable substrate; Inhibition is non competitive type
SMILES,Ki [1],Ki [2],Ki [3],Ki [4],Ki [5],Ki [6]
NC(CCSC(CP(=O)(O)OP(=O)(O)NP(=O)(O)O)[C@H]1O[C@@H](n2cnc3c2NC=NC3N)[C@H](O)[C@@H]1O)C(=O)O (stereo partly drawn),16 µM,11 µM,26 µM,38 µM,–,–
NC(CCS[C@@H](CNP(=O)(O)OP(=O)(O)OP(=O)(O)O)[C@H]1OC(n2cnc3c2NC=NC3N)[C@H](O)[C@@H]1O)C(=O)O (stereo partly drawn),0.36 µM,0.27 µM,–,–,2.3 µM,3 µM
